Results: patent publication US9695155B2, “Herbicidal substituted pyrimidinyloxy benzene compounds” (E. I. DU PONT DE NEMOURS AND COMPANY, priority 2013, dated 2017)

How the values were obtained:
Assay in all cases: Test C flooded paddy test
Details in all cases: Flood, scale 0 to 100 (0 no effect, 100 complete control), 13 to 15 days
rice = type: in vivo, Oryza sativa
Method in brief: (§1)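 Test compounds are applied straight into paddy water held 3 cm above the soil surface, with that flood maintained for the whole test. After 13 to 15 days in the greenhouse, each species is scored visually relative to controls.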

sedge, umbrella = type: in vivo, Cyperus difformis
Method in brief: as §1

barnyardgrass = type: in vivo, Echinochloa crus-galli
Method in brief: as §1

| Structure (SMILES) | Plant response rating, Rice (rice; 31 g ai/ha) | Plant response rating, Rice (rice; 62 g ai/ha) | Plant response rating, Rice (rice; 125 g ai/ha) | Plant response rating, Rice (rice; 250 g ai/ha) | Plant response rating, Sedge, Umbrella (sedge, umbrella; 31 g ai/ha) | Plant response rating, Sedge, Umbrella (sedge, umbrella; 62 g ai/ha) | Plant response rating, Sedge, Umbrella (sedge, umbrella; 125 g ai/ha) | Plant response rating, Sedge, Umbrella (sedge, umbrella; 250 g ai/ha) | Plant response rating, Barnyardgrass (barnyardgrass; 31 g ai/ha) | Plant response rating, Barnyardgrass (barnyardgrass; 62 g ai/ha) | Plant response rating, Barnyardgrass (barnyardgrass; 125 g ai/ha) | Plant response rating, Barnyardgrass (barnyardgrass; 250 g ai/ha) | further results |
| --- | --- | --- | --- | --- | --- | --- | --- | --- | --- | --- | --- | --- | --- |
| Fc1cccc(Oc2ncc(Cl)cn2)c1-n1cc(C(F)F)nn1 [Compound 141, 5-chloro-2-[2-[4-(difluoromethyl)-1H-1,2,3-triazol-1-yl]-3-fluorophenoxy]pyrimidine] | 0 | 0 | 40 | 60 | 0 | 40 | 75 | 100 | 0 | 0 | 15 | 20 | – |
| FC(F)c1cnn(-c2ccccc2Oc2ncc(Cl)cn2)c1 [Compound 80, 5-chloro-2-[2-[4-(difluoromethyl)-1H-pyrazol-1-yl]phenoxy]pyrimidine] | – | – | – | 0 | – | – | – | 0 | – | – | – | 0 | Plant response rating, Rice (rice; 500 g ai/ha): 0; Plant response rating, Rice (rice; 1000 g ai/ha): 0; Plant response rating, Rice (rice; 2000 g ai/ha): 0; Plant response rating, Sedge, Umbrella (sedge, umbrella; 500 g ai/ha): 0; Plant response rating, Sedge, Umbrella (sedge, umbrella; 1000 g ai/ha): 60; Plant response rating, Sedge, Umbrella (sedge, umbrella; 2000 g ai/ha): 85; Plant response rating, Barnyardgrass (barnyardgrass; 500 g ai/ha): 0; Plant response rating, Barnyardgrass (barnyardgrass; 1000 g ai/ha): 0; Plant response rating, Barnyardgrass (barnyardgrass; 2000 g ai/ha): 0 |
| N#Cc1cccc(Oc2ncc(Cl)cn2)c1-n1cc(OC(F)F)cn1 [Compound 97] | 0 | 0 | 0 | 0 | 60 | 60 | 75 | 80 | 0 | 0 | 0 | 0 | – |
| Fc1cccc(Oc2ncc(Cl)cn2)c1-n1cc(Cl)cn1 [Compound 177] | 0 | 0 | 10 | 10 | 0 | 0 | 60 | 85 | 0 | 0 | 0 | 0 | – |
| FC(F)c1cnn(-c2c(Cl)cccc2Oc2ncc(Cl)cn2)c1 [Compound 192] | 0 | 0 | 0 | 0 | 0 | 0 | 50 | 85 | 0 | 0 | 0 | 0 | – |
